# Experiments:
# Assay type in all cases: in vivo
# [1] = test system: winter wheat (Triticum aestivum); assay: Test C pre-/postemergence greenhouse test, plant response rating 0-100
# Method in brief: (§1)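 After treatment, pots stay in the greenhouse 13–15 days before each species is compared with untreated controls and given a 0–100 visual score. Preemergence seeds are in loam blended with sand; postemergence plants, 1–4 leaves, are in peat-based medium.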
# [2] = test system: morningglory (Ipomoea coccinea); assay: as above; details: Postemergence; for Plant response rating, Morningglory: scale 0 to 100
# Method in brief: as §1
# [3] = test system: giant foxtail (Setaria faberii); assay: as above; details: Postemergence; for Plant response rating, Foxtail, Giant: scale 0 to 100
# Method in brief: as §1
# [4] = test system: johnsongrass (Sorghum halepense); assay: as above; details: Postemergence; for Plant response rating, Johnsongrass: scale 0 to 100
# Method in brief: as §1
# [5] = test system: velvetleaf (Abutilon theophrasti); assay: as above
# Method in brief: as §1
# [6] = test system: corn (Zea mays); assay: as above; details: Postemergence; for Plant response rating, Corn: scale 0 to 100
# Method in brief: as §1
# [7] = test system: pigweed (Amaranthus retroflexus); assay: as above; details: Postemergence; for Plant response rating, Pigweed: scale 0 to 100
# Method in brief: as §1
# [8] = test system: lambsquarters (Chenopodium album); assay: as above; details: Postemergence; for Plant response rating, Lambsquarters: scale 0 to 100
# Method in brief: as §1
# [9] = test system: blackgrass (Alopecurus myosuroides); assay: as above; details: Postemergence; for Plant response rating, Blackgrass: scale 0 to 100
# Method in brief: as §1
# [10] = test system: soybean (Glycine max); assay: as above
# Method in brief: as §1
# [11] = test system: kochia (Kochia scoparia); assay: Test C postemergence greenhouse test, plant response rating 0-100; details: for Plant response rating, Kochia: scale 0 to 100
# Excerpt: (§2) At the same time, plants selected from these crop and weed species and also winter barley (Hordeum vulgare), bermudagrass (Cynodon dactylon), downy bromegrass (Bromus tectorum), canarygrass (Phalaris minor), cocklebur (common cocklebur, Xanthium strumarium), woolly cupgrass (Eriochloa villosa), deadnettle (henbit deadnettle, Lamium amplexicaule), green foxtail (Setaria viridis), goosegrass (Eleusine indica), surinam grass (Brachiaria decumbens), windgrass (Apera spica-venti), chickweed (common chickweed, Stellaria media), kochia (Kochia scoparia), and wild oat (Avena fatua), were planted in pots containing Redi-Earth® planting medium (Scotts Company, 14111 Scottslawn Road, Marysville, Ohio 43041) comprising spaghnum peat moss, vermiculite, wetting agent and starter nutrients and treated with postemergence applications of test chemicals formulated in the same manner. Plants ranged in height from 2 to 18 cm (1- to 4-leaf stage) for postemergence treatments. Treated plants and controls were maintained in a greenhouse for 13 to 15 days, after which time all species were compared to controls and visually evaluated. Plant response ratings, summarized in Table C, are based on a scale of 0 to 100 where 0 is no effect and 100 is complete control. A dash (-) response means no test result.
# [12] = test system: wild oat (Avena fatua); assay: as above; details: for Plant response rating, Oat, Wild: scale 0 to 100
# Excerpt: as §2
# [13] = test system: chickweed (common chickweed, Stellaria media); assay: as above; details: for Plant response rating, Chickweed: scale 0 to 100
# Excerpt: as §2
# [14] = Postemergence, 250 g ai/ha, scale 0 to 100
# [15] = Postemergence, 500 g ai/ha, scale 0 to 100
# [16] = Preemergence, 0 to 100 scale (0 no effect, 100 complete control), rate 500 g ai/ha per head r3, sub-head of this section not shown
smiles,measurement,setting,value
O=C(c1ccccc1)c1cn(S(=O)(=O)C(F)(F)F)nc1-c1cc(Cl)cc(Cl)c1 [Compound 2],"Plant response rating (0 to 100), Wheat","[1]; Postemergence, 62 g ai/ha",0
same,"Plant response rating (0 to 100), Wheat","[1]; Postemergence, 125 g ai/ha",0
same,"Plant response rating, Wheat",[1]; [14],0
same,"Plant response rating, Wheat",[1]; [15],0
same,"Plant response rating, Wheat","[1]; Preemergence, 0 to 100 scale (0 no effect, 100 complete control), rate 500 g ai/ha",0
same,"Plant response rating (0 to 100), Morningglory",[2]; 62 g ai/ha,0
same,"Plant response rating (0 to 100), Morningglory",[2]; 125 g ai/ha,0
same,"Plant response rating, Morningglory",[2]; 250 g ai/ha,0
same,"Plant response rating, Morningglory",[2]; 500 g ai/ha,10
same,"Plant response rating (0 to 100), Foxtail, Giant",[3]; 62 g ai/ha,0
same,"Plant response rating (0 to 100), Foxtail, Giant",[3]; 125 g ai/ha,0
same,"Plant response rating, Foxtail, Giant",[3]; 250 g ai/ha,0
same,"Plant response rating, Foxtail, Giant",[3]; 500 g ai/ha,0
same,"Plant response rating (0 to 100), Johnsongrass",[4]; 62 g ai/ha,0
same,"Plant response rating (0 to 100), Johnsongrass",[4]; 125 g ai/ha,0
same,"Plant response rating, Johnsongrass",[4]; 250 g ai/ha,0
same,"Plant response rating, Johnsongrass",[4]; 500 g ai/ha,0
same,"Plant response rating (0 to 100), Velvetleaf","[5]; Postemergence, 62 g ai/ha",75
same,"Plant response rating (0 to 100), Velvetleaf","[5]; Postemergence, 125 g ai/ha",75
same,"Plant response rating, Velvetleaf",[5]; [14],80
same,"Plant response rating, Velvetleaf",[5]; [15],85
same,"Plant response rating, Velvetleaf",[5]; [16],35
same,"Plant response rating (0 to 100), Corn",[6]; 62 g ai/ha,0
same,"Plant response rating (0 to 100), Corn",[6]; 125 g ai/ha,0
same,"Plant response rating, Corn",[6]; 250 g ai/ha,0
same,"Plant response rating, Corn",[6]; 500 g ai/ha,0
same,"Plant response rating (0 to 100), Pigweed",[7]; 62 g ai/ha,90
same,"Plant response rating (0 to 100), Pigweed",[7]; 125 g ai/ha,90
same,"Plant response rating, Pigweed",[7]; 250 g ai/ha,98
same,"Plant response rating, Pigweed",[7]; 500 g ai/ha,100
same,"Plant response rating (0 to 100), Lambsquarters",[8]; 62 g ai/ha,85
same,"Plant response rating (0 to 100), Lambsquarters",[8]; 125 g ai/ha,85
same,"Plant response rating, Lambsquarters",[8]; 250 g ai/ha,85
same,"Plant response rating, Lambsquarters",[8]; 500 g ai/ha,90
same,"Plant response rating (0 to 100), Blackgrass",[9]; 62 g ai/ha,0
same,"Plant response rating, Blackgrass",[9]; 125 g ai/ha,0
same,"Plant response rating, Blackgrass",[9]; 250 g ai/ha,0
same,"Plant response rating, Blackgrass",[9]; 500 g ai/ha,0
same,"Plant response rating (0 to 100), Soybean","[10]; Postemergence, 62 g ai/ha",0
same,"Plant response rating (0 to 100), Soybean","[10]; Postemergence, 125 g ai/ha",0
same,"Plant response rating, Soybean",[10]; [14],0
same,"Plant response rating, Soybean",[10]; [15],5
same,"Plant response rating, Soybean",[10]; [16],0
same,"Plant response rating (0 to 100), Kochia",[11]; 62 g ai/ha,80
same,"Plant response rating (0 to 100), Kochia",[11]; 125 g ai/ha,85
same,"Plant response rating, Kochia",[11]; 250 g ai/ha,90
same,"Plant response rating, Kochia",[11]; 500 g ai/ha,95
same,"Plant response rating (0 to 100), Oat, Wild",[12]; 62 g ai/ha,0
same,"Plant response rating (0 to 100), Oat, Wild",[12]; 125 g ai/ha,0
same,"Plant response rating, Oat, Wild",[12]; 250 g ai/ha,0
same,"Plant response rating, Oat, Wild",[12]; 500 g ai/ha,0
same,"Plant response rating (0 to 100), Chickweed",[13]; 62 g ai/ha,98
same,"Plant response rating (0 to 100), Chickweed",[13]; 125 g ai/ha,100
same,"Plant response rating, Chickweed",[13]; 250 g ai/ha,100
same,"Plant response rating, Chickweed",[13]; 500 g ai/ha,100

# Reference: patent US10167262B2, “Herbicidal substituted 3-arylpyrazoles” (FMC CORPORATION, priority 2014, dated 2019)
